Positions of bridges follow the written chain, without caps; N, C: chain ends. Non-standard residues stand in square brackets, D forms with d. Residues, ends and D or L forms follow the SMILES beside them. NMePhe(4-NO2) = CN[C@@H](Cc1ccc([N+](=O)[O-])cc1)C(=O)O; Phe(4-NO2) = N[C@@H](Cc1ccc([N+](=O)[O-])cc1)C(=O)O; 2Nal = N[C@@H](Cc1ccc2ccccc2c1)C(=O)O; d2Nal = N[C@H](Cc1ccc2ccccc2c1)C(=O)O; Orn = NCCC[C@H](N)C(=O)O; Abu = CC[C@H](N)C(=O)O
Experiments:
[1] = molecular target: T1, rat somatostatin receptor subtype 2 (SSTR2) (Rattus norvegicus, UniProt P30680); assay: Yeast assay, somatostatin agonist activity (zone of growth of modified yeast cells); format: cell-based; design: key: 1 is minimum agonist activity; 5 is maximum agonist activity; --: When no activity is observed, the result is indicated by a dash; details: rating on a scale of 1-5 from zone of growth; S. cerevisiae LY364 expressing rat SSTR2
T1 construct: expressed in transfected cells; host or cells: Saccharomyces cerevisiae LY364 bearing pJH2 (SSTR2) and pLP82 (G protein)
Experimental: (§1) In this evaluation, yeast cells which have been specifically modified to functionally express rat somatostatin receptor subtype 2 (SSTR2) on their cell surfaces are used. S. Cerevisiae LY364 cells are plated in a standard synthetic agar medium which lacks histidine. In the absence of a somatostatin receptor agonist, the auxotrophic (his3) cells are unable to grow. In the presence of somatostatin, or a somatostatin agonist, the expression of an enzyme (His3p: imidazole-glycerol phosphate dehydratase) which is essential for histidine biosynthesis is induced. The cells become competent to produce histidine, resulting in a zone of growing cells around the applied test compound. The zone is measured and the test compound is given an agonist rating on a scale of 1-5 wherein 1 is minimum agonist activity and 5 is maximum agonist activity.
1) Inoculate 2 mL SCD-ura-trp liquid medium in Falcon 2051 tube with a single colony taken from a plate containing LY364 (MATa ura3-52 leu2 his3 trp1 lys2 ade2 far1:: LYS2 fus1:: FUS1-HIS3 gpa1::hisG sst2::.ADE2 bearing the SSTR2 expression plasmid, pJH2, and the G protein expression plasmid, pLP82) cells.
3) Add 1 mL of LY364 culture to 1 liter of agar medium.
8) Incubate plates at 30° C.
Day 5. Begin checking plates for growth around applied compounds.
(§2) Day 7. Growth in response to somatostatin should be readily observable. Rate extent of growth or inhibition of growth according to rating scale described hereinabove.

[2] = molecular target: T1, rat somatostatin receptor subtype 2 (SSTR2); assay: Yeast assay, somatostatin antagonist activity (zone of no growth in presence of S-14); format: cell-based; design: key: 1 is minimum antagonist activity; 5 is maximum antagonist activity; --: When no activity is observed, the result is indicated by a dash; details: rating on a scale of 1-5 from zone of no growth; 5 μL of 1 mg/mL S-14 added to each plate
Experimental: as §1
To evaluate the somatostatin antagonist activity of a test compound, the above procedure is followed except on day 3, 5 μL of 1 mg/mL of somatostatin, S-14, is added to each plate, before applying the test compound. If the test compound is an antagonist of somatostatin, then a zone of no growth will appear within the cell growth zone. This zone of no growth is measured and the test compound is given an antagonist rating on a scale of 1-5 wherein 1 is minimum antagonist activity and 5 is maximum antagonist activity.
The results are shown in Table I. When no activity is observed, the result is indicated by a dash.
On day 3, add 5 μL 1 mg/mL S-14 to each plate.
as §2

SSTR2 = SSTR2 (Rattus norvegicus, UniProt P30680); assay: Competitive binding, displacement of [125I]Tyr11 S-14; design: expressed in transfected cells; membrane protein; details: for Ki: calculated by method of Cheng and Prusoff, read-out: SSTR2 Binding Affinity Ki; for IC50: displacement of [125I]Tyr11 S-14, 250 pM, room temperature, 2 hours, read-out: SSTR2 Binding Affinity IC50
Experimental: In this evaluation the concentration of test compound required to displace 50% of somatostatin, SRIF, from the SRIF receptor subtypes expressed in mammalian cells is measured, i.e., the concentration required to inhibit 50% of [^125 I] Tyr^11 S-14 (Amersham) (IC50) from binding to the SRIF receptor subtypes.
Radiolabeled SRIF is mixed with pituitary cells, the test compound is added, the mixture is incubated and the radioactivity is measured as compared to control. Reduced radioactivity indicates successful competitive binding of the test compound to the pituitary cell receptor. The concentration of the test compound in nanomolar units required to displace 50% of SRIF from the pituitary cell receptor is calculated and reported in Table II as the IC50 value. Also calculated is the inhibitory constant, Ki.
Tyr^11 S-14 (150,000 cpm at 2000 Ci/mmole, 250 pM final concentration). The binding reaction is initiated by adding 2-60 μg of membrane protein in a 170 μL volume. Final reaction volume is 200 μl/well. All incubations are carried out at room temperature for 2 hours. Free radioligand is separated from bound ligand by rapid filtration through a glass fiber filter (IH-201-HA) using an Inotech cell harvester. The filter is then washed several times with cold (4° C.) binding buffer lacking BSA and protease inhibitors prior to counting in an LKB gamma master counter (78% efficiency). Whatman GFC filters presoaked in 0.3% polyethylenimine (to decrease background) are used.
The IC50 values and Ki values are calculated using the well-known methods described by Y. Cheng and W. H. Prusoff, Biochem. Pharmacol. 22, 3099-3108 (1973), incorporated herein by reference thereto.

SSTR2, sequence (P30680 whole entry): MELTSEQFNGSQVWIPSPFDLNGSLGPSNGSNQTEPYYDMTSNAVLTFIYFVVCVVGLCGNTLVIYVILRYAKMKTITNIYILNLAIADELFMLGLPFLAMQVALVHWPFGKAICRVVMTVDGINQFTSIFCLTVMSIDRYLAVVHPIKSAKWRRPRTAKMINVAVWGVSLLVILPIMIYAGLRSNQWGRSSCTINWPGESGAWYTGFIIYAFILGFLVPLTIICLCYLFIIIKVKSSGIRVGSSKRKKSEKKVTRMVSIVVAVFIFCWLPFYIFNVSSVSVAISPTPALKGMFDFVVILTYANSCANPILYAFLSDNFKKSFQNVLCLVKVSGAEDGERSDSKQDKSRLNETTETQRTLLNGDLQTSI
T1 sequence (P30680 whole entry): as above

SMILES	Yeast Assay Agonist [1]	Yeast Assay Antagonist [2]	Ki (SSTR2) [nM]	IC50 (SSTR2) [nM]
CC(=O)N[C@@H](Cc1ccc([N+](=O)[O-])cc1)C(=O)N[C@@H]1CSSC[C@@H](C(=O)N[C@H](Cc2ccc(O)cc2)C(N)=O)NC(=O)[C@H]([C@@H](C)O)NC(=O)[C@H](CCCCN)NC(=O)[C@@H](Cc2c[nH]c3ccccc23)NC(=O)[C@H](Cc2ccc(O)cc2)NC1=O [Ac-4-NO2 Phe Tyr Lys Thr D-Tyr]	--	4	0.3	0.7
C[C@@H](O)[C@@H]1NC(=O)[C@H](CCCCN)NC(=O)[C@@H](Cc2c[nH]c3ccccc23)NC(=O)[C@H](Cc2ccc(O)cc2)NC(=O)[C@H](NC(=O)[C@@H](N)Cc2ccc([N+](=O)[O-])cc2)CSSC[C@@H](C(=O)N[C@H](Cc2ccc(O)cc2)C(N)=O)NC1=O [4-NO2 Phe Tyr Lys Thr D-Tyr]	--	4	1.5	3
CC(=O)N[C@@H](Cc1ccc2ccccc2c1)C(=O)N[C@@H]1CSSC[C@@H](C(=O)N[C@@H](Cc2ccc(O)cc2)C(N)=O)NC(=O)[C@H]([C@@H](C)O)NC(=O)[C@H](CCCCN)NC(=O)[C@@H](Cc2c[nH]c3ccccc23)NC(=O)[C@H](Cc2ccc(O)cc2)NC1=O [Ac-Nal(2) Tyr Lys Thr Tyr] (Ac-[2Nal][dC]Y[dW]KTCY-NH2; disulfide 2-7 (inferred); N-terminus and C-terminus assumed)	--	1	0.48	1
CC(C)[C@@H]1NC(=O)[C@H](CCCCN)NC(=O)[C@@H](Cc2c[nH]c3ccccc23)NC(=O)[C@H](Cc2ccc(O)cc2)NC(=O)[C@H](NC(=O)[C@H](N)Cc2ccc3ccccc3c2)CSSC[C@@H](C(=O)N[C@@H](Cc2ccc(O)cc2)C(N)=O)NC1=O [D-Nal(2) Tyr Lys Val Tyr] (H-[d2Nal][dC]Y[dW]KVCY-NH2; disulfide 2-7)	--	2	0.89	2
CC(C)[C@@H]1NC(=O)[C@H](CCCCN)NC(=O)[C@@H](Cc2c[nH]c3ccccc23)NC(=O)[C@H](Cc2ccc(O)cc2)NC(=O)[C@H](NC(=O)[C@@H](N)Cc2ccc3ccccc3c2)CSSC[C@@H](C(=O)N[C@@H](Cc2ccc(O)cc2)C(N)=O)NC1=O [L-Nal(2) Tyr Lys Val Tyr] (H-[2Nal][dC]Y[dW]KVCY-NH2; disulfide 2-7)	--	3	2.22	5
C[C@@H](O)[C@@H]1NC(=O)[C@H](CCCCN)NC(=O)[C@@H](Cc2c[nH]c3ccccc23)NC(=O)[C@H](Cc2ccc(O)cc2)NC(=O)[C@H](NC(=O)[C@@H](N)Cc2ccc([N+](=O)[O-])cc2)CSSC[C@@H](C(=O)N[C@@H](Cc2ccc(O)cc2)C(N)=O)NC1=O [4-NO2 Phe Tyr Lys Thr Tyr]	--	5	1.33	3

Second part, the compound after the results:

Yeast Assay Agonist [1]	Yeast Assay Antagonist [2]	Ki (SSTR2) [nM]	IC50 (SSTR2) [nM]	SMILES
--	3	1.78	4	CC[C@@H]1NC(=O)[C@H](CCCCN)NC(=O)[C@@H](Cc2c[nH]c3ccccc23)NC(=O)[C@H](Cc2ccc(O)cc2)NC(=O)[C@H](NC(=O)[C@@H](N)Cc2ccc([N+](=O)[O-])cc2)CSSC[C@@H](C(=O)N[C@@H](Cc2ccc(O)cc2)C(N)=O)NC1=O [4-NO2 Phe Tyr Lys Abu Tyr] (H-[Phe(4-NO2)][dC]Y[dW]K[Abu]CY-NH2; disulfide 2-7)
--	5	2.67	6	CN[C@@H](Cc1ccc([N+](=O)[O-])cc1)C(=O)N[C@@H]1CSSC[C@@H](C(=O)N[C@@H](Cc2ccc(O)cc2)C(N)=O)NC(=O)[C@H](C(C)C)NC(=O)[C@H](CCCCN)NC(=O)[C@@H](Cc2c[nH]c3ccccc23)NC(=O)[C@H](Cc2ccc(O)cc2)NC1=O [NMe-4-NO2 Phe Tyr Lys Val Tyr] (H-[NMePhe(4-NO2)][dC]Y[dW]KVCY-NH2; disulfide 2-7 (inferred); N-terminus and C-terminus assumed)
--	2	25	57	C[C@@H](O)[C@@H]1NC(=O)[C@H](CCCNC(=N)N)NC(=O)[C@@H](Cc2c[nH]c3ccccc23)NC(=O)[C@H](Cc2ccc(O)cc2)NC(=O)[C@H](NC(=O)[C@@H](N)Cc2ccc([N+](=O)[O-])cc2)CSSC[C@@H](C(=O)N[C@@H](Cc2ccc(O)cc2)C(N)=O)NC1=O [4-NO2 Phe Tyr Arg Thr Tyr] (H-[Phe(4-NO2)][dC]Y[dW]RTCY-NH2; disulfide 2-7 (inferred); N-terminus and C-terminus assumed)
--	5	12.9	29	CC(C)[C@@H]1NC(=O)[C@H](CCCCN)NC(=O)[C@@H](Cc2c[nH]c3ccccc23)NC(=O)[C@H](Cc2ccc(O)cc2)NC(=O)[C@H](NC(=O)[C@@H](N)Cc2ccc([N+](=O)[O-])cc2)CSSC[C@@H](C(=O)N[C@@H](Cc2ccc(O)cc2)C(N)=O)NC1=O [4-NO2 Phe Tyr Lys Val Tyr] (H-[Phe(4-NO2)][dC]Y[dW]KVCY-NH2; disulfide 2-7 (inferred); N-terminus and C-terminus assumed)
--	4			CC(=O)N[C@@H](Cc1ccc(I)cc1)C(=O)N[C@@H]1CSSC[C@@H](C(=O)N[C@H](Cc2ccc(O)cc2)C(N)=O)NC(=O)[C@H]([C@@H](C)O)NC(=O)[C@H](CCCCN)NC(=O)[C@@H](Cc2c[nH]c3ccccc23)NC(=O)[C@H](Cc2ccc(O)cc2)NC1=O [Ac-4-IPhe Tyr Lys Thr D-Tyr]
--	1			CC(C)[C@@H]1NC(=O)[C@H](CCCN)NC(=O)[C@@H](Cc2c[nH]c3ccccc23)NC(=O)[C@H](Cc2ccc(O)cc2)NC(=O)[C@H](NC(=O)[C@@H](N)Cc2ccc([N+](=O)[O-])cc2)CSSC[C@@H](C(=O)N[C@@H](Cc2ccc(O)cc2)C(N)=O)NC1=O [4-NO2 Phe Tyr Orn Val Tyr] (H-[Phe(4-NO2)][dC]Y[dW][Orn]VCY-NH2; disulfide 2-7 (inferred); N-terminus and C-terminus assumed)
--	1	0.4	0.9	C[C@@H](O)[C@@H]1NC(=O)[C@H](CCCCN)NC(=O)[C@@H](Cc2c[nH]c3ccccc23)NC(=O)[C@H](Cc2ccc(O)cc2)NC(=O)[C@H](NC(=O)[C@@H](N)Cc2ccc3ccccc3c2)CSSC[C@@H](C(=O)N[C@@H](Cc2ccc(O)cc2)C(N)=O)NC1=O [L-Nal(2) Tyr Lys Thr Tyr] (H-[2Nal][dC]Y[dW]KTCY-NH2; disulfide 2-7 (inferred); N-terminus and C-terminus assumed)

Reference: US5846934A, “Pure somatostatin antagonist and methods of use thereof” (American Cyanamid Company, priority 1997, dated 1998)
